According to PMC8192908 (Scientific Reports, 2021):
Marks after values point to notes of the source that are not given here.

What was measured:
ejaculated spermatozoa = test: Sperm motility in ejaculated spermatozoa (swim-up, manual assessment); assay type: cell-based, human; settings: PTXm-1 0.25 mM; for progressive motility vs controls / total motility vs controls: 1 h; for progressive motility vs controls / total motility vs controls / percentage of total motile spermatozoa vs controls: PTX 1 mM; for percentage of total motile spermatozoa vs controls: 1 h and 24 h
Protocol: (§1) For the study, subjects with 2–7 days of sexual abstinence were asked to provide their ejaculates by masturbation. After the completion of semen analysis (WHO, 2010), the leftover semen sample from each subject was used for experiment within 1 h of collection and was equally divided into four groups. The semen samples were washed twice with EBSS media (with bicarbonate buffer) by centrifuging at 500 g for 8 min to remove the seminal plasma. […] The EBSS medium used was with bicarbonate buffer. The samples were incubated for 1 h at 37 °C and 5% CO2. The overlay containing motile fraction of capacitated spermatozoa were collected carefully without disturbing the pellet and used for further analysis. The swim-up fraction containing motile spermatozoa were assessed for motility using manual method and sperm motion characteristics using computer assisted sperm analysis (CASA) as described earlier. […] Percentage of spermatozoa with total and progressive motility was calculated. For CASA, 8 µL sperm suspension was placed on a clean microscopic slide, covered with coverslip (18 mm × 18 mm).

[1] = system: spermatozoa from normozoospermic samples; test: Sperm DNA integrity by TUNEL assay; settings: 24 h in vitro incubation; PTX 1 mM, PTXm-1 0.25 mM; control 6.5%
[2] = system: intracellular cAMP in spermatozoa; test: Intracellular cAMP in spermatozoa; assay type: cell-based, human; settings: 1 h after incubation; PTX 1 mM, PTXm-1 0.25 mM
Protocol: Sperm suspension was centrifuged at 800 g for 10 min and supernatant obtained was frozen at − 80 °C until further analysis. The cAMP level was measured using cAMP test kit as explained by the manufacturers (Elabscience®, Cat. No. E-EL-0056) as described in our earlier report. Briefly, 50 μL of cAMP detection standard or test samples were added to each well of the multi well plate, followed by addition of biotinylated detection solution (50 μL). After 45 min of incubation at 37 °C, the solutions from each well were decanted. The wells of the plate were further washed 3 times using wash buffer and then incubated with 100 μL horse radish peroxidase (HRP) conjugate for 30 min at 37 °C. Further, each well of the multi well plate was washed repeatedly (5 times) and then incubated with 90 μL substrate reagent for 15 min at 37 °C. Finally, the reaction was stopped by adding 50 μL of stop solution and, immediately OD450nm of the each well was measured using Skanit software 5.0 (Multiskan, Photometer, Thermoscientific). The assay was performed in duplicates and standard curve was plotted. The concentration of cAMP was extrapolated from the standard curve.

PDE4D = biological target: T1, PDE4D (Homo sapiens, UniProt Q08499); test: ITC binding of PTX to the catalytic domain of PDE4D
T1 construct: Catalytic domain of each protein was cloned between BamHI and XhoI restriction sites in; 6xHis-SUMO (N, cleaved yes); made in house; host or cells: E. coli Rosetta 2 (DE3)
T1 sequence (Q08499 386-715 limits assumed): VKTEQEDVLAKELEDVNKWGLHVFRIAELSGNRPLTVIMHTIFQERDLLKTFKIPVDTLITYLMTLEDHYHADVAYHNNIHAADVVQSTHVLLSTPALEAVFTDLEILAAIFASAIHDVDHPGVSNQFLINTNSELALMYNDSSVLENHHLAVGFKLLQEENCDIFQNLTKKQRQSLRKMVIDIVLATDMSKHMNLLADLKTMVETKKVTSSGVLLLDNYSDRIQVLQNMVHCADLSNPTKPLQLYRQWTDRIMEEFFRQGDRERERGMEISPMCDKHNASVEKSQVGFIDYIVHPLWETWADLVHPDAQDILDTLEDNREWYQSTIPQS
Excerpt: Supplementary Materials and Methods
Cloning, expression and purification of catalytic domains of PDE4A, […]
The full length human PDE4A (1005 bp), PDE4D (981 bp) and PDE10A (957 bp) cDNAs, cloned in pET28a(+) expression vector, were purchased from Biomatik, Canada.
Catalytic domain of each protein was cloned between BamHI and XhoI restriction sites in 6x-His-SUMO-tagged bacterial expression vector. The catalytic domain constructs of PDE4A, PDE4D and PDE10A were transformed in E. coli Rosetta 2 (DE3) competent cells for expression. After growing the transformed cells at 37 °C, till the OD 600nm reached 0.5-0.7, the culture containing constructs of PDE4A and PDE4D were induced with 0.1 mM IPTG and the cultures were incubated at 15 °C for 16-18 h, whereas those with PDE10A constructs were induced with 0.5 mM at incubated for 35 -40 h followed by cell harvesting. Harvested cells were suspended in lysis buffer (500 mM NaCl, 50 mM Tris - Cl pH 8.0, 10 mM Imidazole, 3 mM β-mercaptoethanol) and lysed by sonication (Qsonica). The lysates were cleared by centrifugation at 20,000g for 1h and supernatant was passed through Ni-NTA affinity column (His-Trap, GE Healthcare). Eluted proteins were subjected to salt exchange with a buffer containing 100 mM NaCl, 50 mM Tris-Cl pH 8.0, 3 mM β-mercaptoethanol. The collected proteins were further purified using ion - exchange chromatography (Q column, Hi-Trap, GE Healthcare) followed by overnight treatment with ULP1 at 4 °C to cleave 6xHis-SUMO tag. The tag was separated from proteins by a subsequent Ni-NTA purification. The proteins were further purified on size exclusion 16/600 200 pg column (GE Healthcare) pre-equilibrated with a buffer (100 mM […]
NaCl, 50 mM Tris pH 8.0, 5% Glycerol, 3 mM β-mercaptoethanol). After purifying with a gel filtration column, purity was determined on 12% SDS -PAGE and all three proteins […]
concentrated to 20mg/ml, flash cooled with liquid nitrogen and stored at -80°C.
Isothermal titration calorimetry (ITC) binding studies […]
of PDE4A, PDE4D and PDE10A were determined at 25°C, using Affinity ITC (TA instruments). […]

[3] = system: spermatozoa from asthenozoospermic semen samples; test: Sperm kinematics by computer assisted semen analysis (CASA); assay type: cell-based, human; settings: 1 h after incubation; PTX 1 mM, PTXm-1 0.25 mM; mean ± SE, N = 28
Protocol: as §1

PDE10A-PTXm-1 complex = biological target: T2, PDE10A-PTXm-1 complex (Homo sapiens, UniProt Q9Y233); test: Competitive ITC: PTX titrated against PDE10A-PTXm-1 complex; assay type: binding
T2 construct: Catalytic domain of each protein was cloned between BamHI and XhoI restriction sites in; 6xHis-SUMO (N, cleaved yes); made in house; host or cells: E. coli Rosetta 2 (DE3)
T2 sequence (Q9Y233 718-1035 limits assumed, one chain of several): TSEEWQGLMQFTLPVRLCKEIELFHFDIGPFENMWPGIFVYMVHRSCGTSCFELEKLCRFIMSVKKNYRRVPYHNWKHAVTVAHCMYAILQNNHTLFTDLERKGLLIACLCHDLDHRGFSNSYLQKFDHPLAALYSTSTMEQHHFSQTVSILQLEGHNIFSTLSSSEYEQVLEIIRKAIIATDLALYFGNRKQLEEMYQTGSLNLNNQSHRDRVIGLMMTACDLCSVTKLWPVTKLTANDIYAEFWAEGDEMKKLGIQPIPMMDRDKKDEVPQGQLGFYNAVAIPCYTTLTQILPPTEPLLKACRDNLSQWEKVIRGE

[4] = asthenozoospermic samples, 24 h

Structure (SMILES)	progressive motility vs controls (ejaculated spermatozoa; asthenozoospermic samples)	total motility vs controls (ejaculated spermatozoa; asthenozoospermic samples)	percentage of total motile spermatozoa vs controls (ejaculated spermatozoa; normozoospermic samples)	intracellular cAMP level vs control and vehicle control [2]	ALH [3]	BCF [3]	LIN [3]	VAP [3] [µm/s]	VCL [3]	VSL [3] [µm/s]	WOB [3]	other results
CC(=O)CCCCn1c(=O)c2c(ncn2C)n(C)c1=O [PTX, pentoxifylline]	significantly higher	significantly higher	increased	significantly higher	5.04 ± 0.06^b µm	8.56 ± 0.17 Hz	28.47 ± 1.01	47.89 ± 0.96	112.60 ± 3.10^b µm/s	28.34 ± 4.67	42.54 ± 0.61^b	spermatozoa with damaged DNA (TUNEL) [1]: 10.25%; change in enthalpy (ΔH) (PDE4D): ~ -10.56±1.07 kcal/mol; change in entropy (ΔS) (PDE4D): ~ -16.47 cal/mol.K; stoichiometry (N) (PDE4D): ~ 0.93±0.07; STR [3]: 66.94 ± 0.98^b,c; Kd (PDE10A-PTXm-1 complex; PDE10A-PTXm-1 complex with 2:1 molar ratio): 350 µM
COc1ccc2cc(/C=C/C(=O)CCCCn3c(=O)c4c(ncn4C)n(C)c3=O)ccc2c1 [PTXm-1]	significantly higher	significantly higher	increased	significantly higher	5.21 ± 0.09^b µm	9.67 ± 0.19^b,c,d Hz	27.78 ± 1.02	45.90 ± 0.97	109.6 ± 3.27^a µm/s	27.67 ± 3.79	41.87 ± 0.70^b	percentage of progressively motile spermatozoa vs PTX (ejaculated spermatozoa; [4]): considerably (P < 0.001) higher percentage; percentage of total motile spermatozoa vs PTX (ejaculated spermatozoa; [4]): considerably (P < 0.001) higher percentage; percentage of progressively motile spermatozoa vs C, VC and PTX (ejaculated spermatozoa; normozoospermic samples, 24 h): higher percentage of progressively motile spermatozoa; decrease of the binding affinity of PTX towards PDE10A in presence of PTXm-1 (PDE10A-PTXm-1 complex; PDE10A-PTXm-1 2:1 molar ratio): ~ eight-fold decrease
